Experimental data reported in ChEMBL document CHEMBL6071125, “Biological function and small molecule inhibitors of histone deacetylase 11” (Eur J Med Chem, 2024).
Square brackets hold non-standard residues; d marks the D form. Peptide text beside a SMILES is read from it. * marks the point of attachment. Asu = N[C@@H](CCCCCC(=O)O)C(=O)O; dPip = O=C(O)[C@H]1CCCCN1; NHOH = ON*

What was measured:
[1] = molecular target: T1, Histone deacetylase 11 (Homo sapiens) (UniProt Q96DB2); experiment: Inhibition of HDAC11 (unknown origin) expressed in HEK293T cells at 100 uM relative to control; assay type: cell-based
T1 sequence (whole entry): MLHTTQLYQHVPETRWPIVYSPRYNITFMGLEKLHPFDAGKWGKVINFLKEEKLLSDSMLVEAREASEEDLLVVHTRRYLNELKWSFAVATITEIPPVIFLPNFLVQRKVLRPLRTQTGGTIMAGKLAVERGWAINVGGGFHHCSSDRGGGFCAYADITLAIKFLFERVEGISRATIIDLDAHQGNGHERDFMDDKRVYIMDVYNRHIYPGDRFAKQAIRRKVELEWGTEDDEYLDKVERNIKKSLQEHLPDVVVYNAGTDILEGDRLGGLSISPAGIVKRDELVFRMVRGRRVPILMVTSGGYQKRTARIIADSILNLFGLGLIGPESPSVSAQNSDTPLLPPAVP

Histone deacetylase 11 [2] = molecular target: T2, Histone deacetylase 11 (Homo sapiens, UniProt Q96DB2); experiment: Inhibition of full length human recombinant HDAC11 using FAM-RHKK(tri-fluor-Ac)-NH2 as substrate by electrophoretic mobility shift assay
T2 sequence (Q96DB2 whole entry): T1 sequence (whole entry)

[3] = molecular target: T3, Protein deacetylase HDAC6 (Homo sapiens, UniProt Q9UBN7); experiment: Inhibition of human recombinant HDAC6 using AMC-K(Ac)GL as substrate by fluorescence based assay
T3 sequence (Q9UBN7 whole entry): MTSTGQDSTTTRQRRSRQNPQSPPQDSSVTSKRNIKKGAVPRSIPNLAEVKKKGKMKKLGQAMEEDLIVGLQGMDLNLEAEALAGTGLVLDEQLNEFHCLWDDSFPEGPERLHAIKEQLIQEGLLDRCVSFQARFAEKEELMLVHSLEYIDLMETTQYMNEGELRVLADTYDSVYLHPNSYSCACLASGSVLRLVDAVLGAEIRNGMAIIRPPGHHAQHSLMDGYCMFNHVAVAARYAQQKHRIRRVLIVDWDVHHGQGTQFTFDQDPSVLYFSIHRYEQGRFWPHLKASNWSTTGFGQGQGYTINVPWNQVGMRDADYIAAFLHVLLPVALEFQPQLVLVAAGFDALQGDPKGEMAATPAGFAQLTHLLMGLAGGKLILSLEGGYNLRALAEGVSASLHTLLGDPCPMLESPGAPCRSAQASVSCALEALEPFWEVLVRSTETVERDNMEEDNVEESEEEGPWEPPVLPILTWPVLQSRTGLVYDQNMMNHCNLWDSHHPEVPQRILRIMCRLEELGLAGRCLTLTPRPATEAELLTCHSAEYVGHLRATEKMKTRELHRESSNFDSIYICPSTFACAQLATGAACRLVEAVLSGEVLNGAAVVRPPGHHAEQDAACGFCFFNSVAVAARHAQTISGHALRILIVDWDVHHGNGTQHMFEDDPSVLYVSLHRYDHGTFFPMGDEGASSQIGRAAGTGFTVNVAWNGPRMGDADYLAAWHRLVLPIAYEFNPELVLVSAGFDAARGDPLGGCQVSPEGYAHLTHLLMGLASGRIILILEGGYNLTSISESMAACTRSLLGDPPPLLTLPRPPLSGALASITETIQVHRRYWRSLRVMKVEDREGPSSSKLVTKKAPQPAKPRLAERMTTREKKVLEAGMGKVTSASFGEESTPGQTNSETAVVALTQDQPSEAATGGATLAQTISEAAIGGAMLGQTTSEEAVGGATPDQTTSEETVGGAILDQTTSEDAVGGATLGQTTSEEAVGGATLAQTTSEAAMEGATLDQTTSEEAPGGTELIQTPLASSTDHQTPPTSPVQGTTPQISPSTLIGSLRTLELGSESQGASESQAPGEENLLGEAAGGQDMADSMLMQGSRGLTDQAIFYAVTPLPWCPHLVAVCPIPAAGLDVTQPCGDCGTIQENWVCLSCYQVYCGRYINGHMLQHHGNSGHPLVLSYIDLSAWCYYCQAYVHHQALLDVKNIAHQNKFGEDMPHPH

Histone deacetylase 8 = molecular target: T4, Histone deacetylase 8 (Homo sapiens, UniProt Q9BY41); experiment: Inhibition of human Flag-tagged HDAC8 expressed in HEK293T cells by fluorescence based analysis; assay type: cell-based
T4 sequence (Q9BY41 whole entry): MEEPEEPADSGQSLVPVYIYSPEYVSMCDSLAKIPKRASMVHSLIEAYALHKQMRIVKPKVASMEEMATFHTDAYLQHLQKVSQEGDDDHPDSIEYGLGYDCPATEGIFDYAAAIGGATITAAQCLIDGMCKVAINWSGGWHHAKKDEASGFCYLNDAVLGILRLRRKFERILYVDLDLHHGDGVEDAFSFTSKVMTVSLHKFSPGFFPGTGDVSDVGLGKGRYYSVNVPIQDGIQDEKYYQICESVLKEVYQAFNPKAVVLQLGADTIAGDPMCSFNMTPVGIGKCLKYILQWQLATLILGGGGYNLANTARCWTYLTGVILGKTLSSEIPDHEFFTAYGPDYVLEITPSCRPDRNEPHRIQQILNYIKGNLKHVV

Histone deacetylase 11 [4] = molecular target: T2, Histone deacetylase 11; experiment: Inhibition of full length N-terminal GST-tagged human HDAC11
Histone deacetylase 11 [5] = molecular target: T2, Histone deacetylase 11; experiment: Inhibition of HDAC11 (unknown origin)

SMILES	inhibition [1] [%]	other results
CCCC(=O)O	< 5	–
CCCCCC(=O)O	< 20	–
O=C(O)C(F)(F)F	< 5	–
CCCCCCCCCCCCCCCC(=O)O [PALMITIC ACID]	–	IC50 (Histone deacetylase 11 [2]): 900 µM
Cn1c(/C=C/C(=O)NO)ccc1/C=C/C(=O)c1cccc(F)c1	–	IC50 [3]: 8.4 µM
O=C(O)CCCC[C@@H]1SC[C@@H]2NC(=O)N[C@@H]21	< 20	–
CC(=O)O	< 10	–
CCCCCCCC(=O)O	< 20	–
CCCCCCCCCCCCCCCCNNC(=O)c1cccs1	–	IC50 (Histone deacetylase 8): > 100 µM
CC[C@H](C)[C@@H]1NC(=O)[C@H](Cc2c[nH]c3ccccc23)NC(=O)[C@H](CCCCCC(=O)NO)NC(=O)[C@H]2CCCCN2C1=O (cyclo([Asu](NHOH)WI[dPip]))	–	IC50 (Histone deacetylase 11 [4]): 0.01 µM
O=C(O)CCCC[C@@H]1CCSS1	< 20	–
CCCCCCCCCCCCCCCCNNC(=O)c1ccc(N(C)C)cc1	–	IC50 (Histone deacetylase 8): > 100 µM
O=C(O)/C=C/c1ccc(-c2ccc(O)c(C34CC5CC(CC(C5)C3)C4)c2)cc1 [ADAROTENE]	–	IC50 (Histone deacetylase 11 [5]): > 10 µM
CCC(=O)O	< 10	–
